Data: the supplement of paper PMC10307832

What was measured:
Experiment in all cases: relative viability (nuclei count vs DMSO), 5 days (fraction); higher = more cells survive
EHT 1864 + Phenformin = compound: C1COCCN1CC2=CC(=O)C(=CO2)OCCCCCSC3=C4C=CC(=CC4=NC=C3)C(F)(F)F [EHT 1864] + N=C(N)NC(=N)NCCc1ccccc1 [Phenformin] (partner 250 µM)
Summary of the method: (§1)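 Nuclei were stained with Hoechst during a one-step fixation (final 0.05% Triton X-100, 1% formaldehyde, 1 ug/ml Hoechst) carried out 5 days after dosing, then counted on 4× images. The cells, lung cancer lines in 1536-well plates, had been dosed by pin tool the day after seeding with one drug alone or a fixed anchor-drug dose plus five library-drug doses (not always all listed) in √10 steps. Relative viability is the nuclei count in treated wells divided by that in vehicle wells, and each value is the median of duplicate plates.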

EHT 1864 + OSI-027 = compound: C1COCCN1CC2=CC(=O)C(=CO2)OCCCCCSC3=C4C=CC(=CC4=NC=C3)C(F)(F)F [EHT 1864] + COc1cccc2cc(-c3nc([C@H]4CC[C@H](C(=O)O)CC4)n4ncnc(N)c34)[nH]c12 [OSI-027] (partner 0.5 µM)
Summary of the method: as §1

EHT 1864 + Trametinib = compound: C1COCCN1CC2=CC(=O)C(=CO2)OCCCCCSC3=C4C=CC(=CC4=NC=C3)C(F)(F)F [EHT 1864] + CC(=O)Nc1cccc(-n2c(=O)n(C3CC3)c(=O)c3c(Nc4ccc(I)cc4F)n(C)c(=O)c(C)c32)c1 [Trametinib] (partner 0.02 µM)
Summary of the method: as §1

EHT 1864 + Crizotinib = compound: C1COCCN1CC2=CC(=O)C(=CO2)OCCCCCSC3=C4C=CC(=CC4=NC=C3)C(F)(F)F [EHT 1864] + C[C@@H](Oc1cc(-c2cnn(C3CCNCC3)c2)cnc1N)c1c(Cl)ccc(F)c1Cl [Crizotinib] (partner 1 µM)
Summary of the method: as §1

Cell Line | relative viability (EHT 1864 + Phenformin; first compound 0.04 µM) | relative viability (EHT 1864 + Phenformin; first compound 0.1265 µM) | relative viability (EHT 1864 + Phenformin; first compound 0.4 µM) | relative viability (EHT 1864 + Phenformin; first compound 1.265 µM) | relative viability (EHT 1864 + Phenformin; first compound 4 µM) | relative viability (EHT 1864 + OSI-027; first compound 0.04 µM) | relative viability (EHT 1864 + OSI-027; first compound 0.1265 µM) | relative viability (EHT 1864 + OSI-027; first compound 0.4 µM) | relative viability (EHT 1864 + OSI-027; first compound 1.265 µM) | relative viability (EHT 1864 + OSI-027; first compound 4 µM) | relative viability (EHT 1864 + Trametinib; first compound 0.04 µM) | relative viability (EHT 1864 + Trametinib; first compound 0.1265 µM) | relative viability (EHT 1864 + Trametinib; first compound 0.4 µM) | relative viability (EHT 1864 + Trametinib; first compound 1.265 µM) | relative viability (EHT 1864 + Trametinib; first compound 4 µM) | relative viability (EHT 1864 + Crizotinib; first compound 0.04 µM) | relative viability (EHT 1864 + Crizotinib; first compound 0.1265 µM) | relative viability (EHT 1864 + Crizotinib; first compound 0.4 µM) | relative viability (EHT 1864 + Crizotinib; first compound 1.265 µM) | relative viability (EHT 1864 + Crizotinib; first compound 4 µM)
NCI-H322M | 0.798 | 0.739 | 0.752 | 0.783 | 0.824 | 0.591 | 0.444 | 0.535 | 0.585 | 0.533 | 0.525 | 0.525 | 0.544 | 0.595 | 0.595 | 0.927 | 0.837 | 0.849 | 0.995 | 1.05
NCI-H358 | 0.328 | 0.338 | 0.367 | 0.345 | 0.303 | 0.842 | 0.745 | 0.863 | 0.799 | 0.685 | 0.138 | 0.126 | 0.153 | 0.14 | 0.124 | 0.604 |  | 0.616 | 0.517 | 0.579
NCI-H441 | 0.845 | 0.604 | 0.717 | 0.853 | 0.932 | 0.685 | 0.511 | 0.414 | 0.581 | 0.734 | 0.365 |  | 0.544 | 0.573 | 0.51 | 0.783 | 0.591 | 0.752 | 0.879 | 0.723
NCI-H460 | 0.508 | 0.443 | 0.513 | 0.518 | 0.568 | 0.678 | 0.576 | 0.649 | 0.621 | 0.552 |  | 0.108 | 0.222 | 0.133 | 0.134 | 0.805 | 0.85 | 0.769 | 0.888 | 0.799
NCI-H520 | 0.517 | 0.422 | 0.785 | 0.669 | 0.711 | 0.266 | 0.25 | 0.247 | 0.24 | 0.224 | 0.692 | 0.628 | 0.732 | 0.659 | 0.67 | 0.657 | 0.599 | 0.642 | 0.733 | 0.804
NCI-H596 | 0.75 | 0.523 | 0.753 | 0.571 | 0.813 | 0.716 | 0.651 | 0.803 | 0.572 | 0.529 | 0.796 | 0.658 | 0.812 | 0.738 | 0.857 | 1.02 | 1.04 | 0.931 | 0.896 | 0.973
NCI-H647 | 0.589 | 0.432 | 0.561 | 0.6 | 0.545 | 0.622 | 0.368 | 0.598 | 0.738 | 0.621 | 0.437 | 0.353 | 0.604 | 0.429 | 0.464 | 1 | 0.922 | 0.903 | 0.992 | 0.911
NCI-H650 | 0.403 | 0.455 | 0.48 | 0.447 | 0.459 | 0.53 | 0.354 | 0.546 | 0.531 | 0.49 | 0.995 | 0.92 | 0.898 | 1.23 | 1.11 | 0.71 |  | 0.805 | 0.7 | 0.698
NCI-H661 | 0.339 | 0.273 | 0.301 | 0.302 | 0.269 | 0.735 | 0.587 | 0.659 | 0.711 | 0.597 | 0.527 | 0.53 | 0.616 | 0.565 | 0.498 | 1.03 | 1.03 | 0.882 | 0.85 | 0.879
NCI-H727 | 0.551 | 0.574 | 0.481 | 0.461 | 0.597 | 0.525 | 0.532 | 0.592 | 0.576 | 0.61 | 0.389 | 0.386 | 0.382 | 0.374 | 0.421 | 0.803 | 0.713 | 0.699 |  | 0.786
NCI-H838 | 0.558 | 0.513 | 0.638 | 0.697 | 0.588 | 0.371 | 0.313 | 0.395 | 0.376 | 0.425 | 0.5 | 0.466 | 0.553 | 0.514 | 0.536 | 0.74 | 0.724 | 0.911 | 0.826 | 0.802
NCI-H1355 | 0.471 | 0.425 | 0.447 | 0.446 | 0.433 | 0.417 | 0.289 | 0.409 | 0.397 | 0.396 | 0.461 | 0.39 | 0.393 | 0.452 | 0.412 | 1.12 | 0.875 | 1.06 | 1.07 | 1.03
NCI-H1437 | 0.34 | 0.262 | 0.298 | 0.311 | 0.335 | 0.852 | 0.916 | 0.813 | 0.722 | 0.703 | 0.531 | 0.411 | 0.56 | 0.485 | 0.45 | 0.87 | 0.918 | 0.845 | 0.838 | 0.642
NCI-H1650 |  |  | 0.478 | 0.435 | 0.39 |  |  | 0.599 | 0.638 | 0.611 | 0.521 | 0.568 | 0.515 | 0.515 | 0.568 | 0.857 | 0.653 | 0.947 | 0.911 | 1.15
NCI-H1651 | 0.376 | 0.358 | 0.333 | 0.345 | 0.334 | 0.704 | 0.675 | 0.75 | 0.647 | 0.69 | 0.832 | 0.827 | 0.822 | 0.817 | 0.808 | 0.865 | 0.798 | 0.826 | 0.801 | 0.843
NCI-H1666 | 0.614 | 0.504 | 0.584 | 0.562 | 0.627 | 0.887 | 0.691 | 0.8 | 0.81 | 0.833 | 0.961 | 0.886 | 0.8 | 0.884 | 0.862 | 0.771 | 0.867 | 1.2 | 0.965 | 1.01
